Like-named read-outs stand apart in the source and are kept apart here.
Columns and labels:
human 11β-HSD1 = biological target: T1, human 11β-HSD1 (Homo sapiens, UniProt P28845); test: Inhibition of 11β-HSD1-dependent oxoreduction of cortisone in HEK-293 cell lysates; type: biochemical; conditions: for IC50: human enzyme, 200 nM cortisone, read-out: IC50, 11β-HSD1-dependent conversion of cortisone to cortisol
T1 construct: expressed in transfected cells
Procedure: 11β-HSD1 and 11β-HSD2 enzyme activities were assessed in lysates of HEK-293 cells stably expressing the respective enzyme as reported earlier ([40]). Briefly, 11β-HSD1-dependent oxoreductase activity was determined by the incubation of lysates with 200 nM of radiolabeled cortisone, 500 μM of NADPH, and the test substance or vehicle for 10 min at 37°C. 11β-HSD2-dependent oxidation of cortisol was measured instead by the addition of 50 nM of radiolabeled cortisol and 500 μM of NAD^+. The enzymatic reaction was stopped by introducing an excess amount of unlabeled cortisone and cortisol (1:1, 2 mM unlabeled each, in methanol). Cortisone and cortisol were separated using TLC and a chloroform and methanol (9:1, v/v) mixture. The bands were detected under UV light, scraped off the plate, and metabolism of the radiolabeled substrate was then evaluated by scintillation counting and the substrate conversion determined and compared with the control sample. Data (mean ± SD) were normalized to the control (DMSO) sample and obtained from at least three independent experiments.

mouse 11β-hsd2 = biological target: T2, mouse 11β-hsd2 (Mus musculus, UniProt P51661); test: 11β-hsd2 activity in mouse kidney homogenates (corticosterone to 11-dehydrocorticosterone); type: biochemical
T2 construct: The determination of 11β-hsd2 activity in mouse kidney homogenates; from tissue; host or cells: kidney of adult male C57BL6 mice
T2 sequence (P51661 1-386): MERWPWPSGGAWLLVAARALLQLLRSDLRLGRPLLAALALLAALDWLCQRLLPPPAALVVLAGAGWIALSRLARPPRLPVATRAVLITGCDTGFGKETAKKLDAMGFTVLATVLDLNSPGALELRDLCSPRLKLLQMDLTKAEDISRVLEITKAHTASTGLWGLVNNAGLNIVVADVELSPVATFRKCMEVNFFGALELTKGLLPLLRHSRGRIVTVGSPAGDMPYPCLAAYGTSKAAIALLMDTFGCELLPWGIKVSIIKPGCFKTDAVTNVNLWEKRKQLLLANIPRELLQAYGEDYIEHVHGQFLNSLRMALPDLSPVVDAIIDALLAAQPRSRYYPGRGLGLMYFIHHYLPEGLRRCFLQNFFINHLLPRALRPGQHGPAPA
Procedure: The determination of 11β-hsd2 activity in mouse kidney homogenates was conducted as described earlier ([41]). Briefly, for homogenate preparation, kidneys from adult male mice (C57BL6) were snap-frozen and sonicated in homogenization buffer [250 mM sucrose, 10 mM HEPES (pH 7.4); 900 μl for 100 mg of tissue]. Then, the homogenate was centrifuged (2,000 g, 4°C for 10 min) and the total protein concentration determined. The enzymatic reaction was assessed using 0.075 mg/ml total protein of the kidney homogenate in incubation buffer [300 mM NaCl, 20 mM Tris/HCl, 1 mM EDTA, 10% glycerol (pH 7.7)], different concentrations of oxysterols, 50 nM of corticosterone (containing 50 nCi [1,2,6,7-^3H] corticosterone), and 500 μM NAD^+ at 37°C for 20 min. Corticosterone and 11-dehydrocorticosterone were separated using TLC. Substrate conversion was determined by scintillation counting. Data (mean ± SD) were normalized to vehicle control (DMSO) and obtained from at least three independent experiments.

RORγ = biological target: T3, RORγ (Homo sapiens, UniProt P51449); test: RORγ reporter gene assay in doxycycline-inducible RORγ CHO Tet-on cells transfected with 11β-HSD1/H6PDH, 11β-HSD2 or pcDNA3; type: cell-based; set-up: only weakly by 7k27OHC when full-length receptors are considered [([31]), present study]; expressed in transfected cells
T3 sequence (P51449 1-518): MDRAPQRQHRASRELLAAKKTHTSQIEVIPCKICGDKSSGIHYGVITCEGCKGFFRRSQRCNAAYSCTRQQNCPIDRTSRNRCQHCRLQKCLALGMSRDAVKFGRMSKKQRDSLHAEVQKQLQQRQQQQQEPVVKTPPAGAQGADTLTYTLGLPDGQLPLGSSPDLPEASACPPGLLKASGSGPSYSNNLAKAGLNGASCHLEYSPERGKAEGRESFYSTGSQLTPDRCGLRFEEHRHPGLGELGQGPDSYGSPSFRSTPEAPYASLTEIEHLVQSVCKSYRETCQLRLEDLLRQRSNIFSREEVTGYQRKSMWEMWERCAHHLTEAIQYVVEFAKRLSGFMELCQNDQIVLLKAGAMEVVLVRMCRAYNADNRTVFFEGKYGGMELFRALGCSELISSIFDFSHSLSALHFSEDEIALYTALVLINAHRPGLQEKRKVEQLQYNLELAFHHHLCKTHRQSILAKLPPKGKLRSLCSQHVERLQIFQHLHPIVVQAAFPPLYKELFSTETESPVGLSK
Procedure: Doxycycline-inducible RORγ CHO Tet-on cells were transfected with 11β-HSD1/H6PDH, 11β-HSD2. or pcDNA3 using the electroporation method according to the manufacturer’s protocol (Neon™ transfection system; Invitrogen). Briefly, the cells […]). Three electric pulses of 1,620 V and 10 ms were delivered to the cells using a 100 μl gold tip. Then, the cells (20,000 cells per well) were seeded in 96-well plates using culture medium without antibiotics and incubated for 16 h. The medium was replaced with medium containing charcoal-dextran stripped FBS for 1.5 h before treating the cells with different concentrations of oxysterols. After 6 h, 1.25 μM of the inverse agonist SR2211 was added to the treatment for another 2 h. To induce ROR expression, the cells were additionally subjected to 1 μM doxycycline for a further 16 h. The cells were lysed in 20 μl Tropix lysis solution supplemented with 0.5 mM dithiothreitol. RORγ-mediated activation of the luciferase reporter was measured in 10 μl lysate by adding 100 μl of D-luciferin-firefly substrate solution. Data (mean ± SD) were obtained from at least three independent experiments.

[1] = 11β-HSD2 expressing RORγ Tet-on cells

T1 sequence (P28845 whole entry): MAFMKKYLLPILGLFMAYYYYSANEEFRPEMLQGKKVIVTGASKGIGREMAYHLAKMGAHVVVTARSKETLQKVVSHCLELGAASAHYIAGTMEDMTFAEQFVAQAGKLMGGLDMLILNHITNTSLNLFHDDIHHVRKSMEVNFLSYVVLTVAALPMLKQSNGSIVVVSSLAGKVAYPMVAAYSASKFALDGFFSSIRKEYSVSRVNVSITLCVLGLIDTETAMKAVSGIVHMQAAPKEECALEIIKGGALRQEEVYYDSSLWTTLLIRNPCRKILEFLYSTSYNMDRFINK

Structure (SMILES) | IC50 (human 11β-HSD1; 10 min, 37°C) | IC50 (mouse 11β-hsd2; 50 nM corticosterone, 20 min, 37°C, read-out: IC50, mouse 11β-hsd2 activity (corticosterone to 11-DHC)) | Reversal of the inhibitory effect of SR2211 on RORγ reporter (in words) (RORγ; [1]) | Reversal of the inhibitory effect of SR2211 on RORγ reporter (in words) (RORγ; coexpression of RORγ with 11β-HSD1) | Inhibition of human 11β-HSD1 enzyme activity (in words) (human 11β-HSD1; concentrations up to 10 μM, data not shown) | Inhibition of mouse 11β-hsd2 activity (in words) (mouse 11β-hsd2) | Effect on RORγ reporter (in words) (RORγ; only control plasmid expressed, data not shown) | IC50 (human 11β-HSD1)
CC(CO)CCC[C@@H](C)[C@H]1CC[C@H]2[C@@H]3C(=O)C=C4C[C@@H](O)CC[C@]4(C)[C@H]3CC[C@]12C (stereo partly shown) [7k27OHC, 7-keto,27-hydroxycholesterol] | 0.357 ± 0.038 µM | 1.65 ± 0.4 µM | weak response | capable of reversing the inhibitory effect of the RORγ antagonist, SR2211, in the same manner as 7β27OHC | – | – | – | –
C[C@@H](CO)CCC[C@@H](C)[C@H]1CC[C@H]2[C@@H]3[C@H](O)C=C4C[C@@H](O)CC[C@]4(C)[C@H]3CC[C@]12C [7α27OHC] | – | – | – | – | did not inhibit the enzyme activity | Neither 7β27OHC nor 7α27OHC inhibited | same weak concentration-dependent effect as 7k27OHC | –
CC(CO)CCC[C@@H](C)[C@H]1CC[C@H]2[C@@H]3[C@@H](O)C=C4C[C@@H](O)CC[C@]4(C)[C@H]3CC[C@]12C (stereo partly drawn) [7β27OHC, 7β,27-dihydroxycholesterol] | – | – | could not restore RORγ activity | – | – | Neither 7β27OHC nor 7α27OHC inhibited | – | ≥ 3 µM
